The subject of series [1] is existing sprouts on post-dormant potatoes with peeps and sprouts extant. The series is described as follows: Comparison of thermofogged sprout suppressing chemicals for "burn" of existing sprouts (Example IV). Format: in vivo. Details: key to Burn “old” / Burn “new”: +: indicates fair effectiveness; ++: indicates good effectiveness; +++: indicates excellent effectiveness; A minus (−) sign indicates no noticeable effect; a +/− sign indicates only partial effectiveness at a minimal level. To be noted: for Burn “old”: effect upon old sprouts, up to nine months old; for Burn “old” / Burn “new”: thermofogged at comparable dosages; for Burn “new”: newly emerged sprouts and peeps, generally less than a month. As for the experimental part:
Various sprout suppressing chemicals were compared for their ability to suppress existing sprouts on post-dormant potatoes with peeps and sprouts extant. […] Clove oil applied at a predetermined dosage gave a “burn” effectiveness of 46% of existing peeps while 1-nonanol at a dosage one-fourth as great gave a 50% “burn.” At a one-half dosage, 1-nonanol provided a 100% “burn” effectiveness within 24 hours after treatment. In the above table “Burn old” refers to the effect upon old sprouts, which included sprouts up to nine months old, these being generally more difficult to desiccate, while “burn new” refers to newly emerged sprouts and peeps, generally less than a month or so in existence.

In the next series the test system is potatoes. The series is described as follows: 1-octanol thermofog on cold versus 53° F. potatoes, condensation damage (Example V). Format: in vivo. As for the experimental part: An experiment was performed wherein 1-octanol at various dosages were applied to potatoes wherein the temperature of the potatoes was at about 36° F. The 1-octanol was applied via an electric thermofogger at a fog temperature within the fogger of about 500° F. to obtain a stable aerosol. The potatoes were examined about 24 hours after treatment. […] The potatoes were cut open at the dark spots. Damage to the flesh of the potatoes existed to a depth of about 5 mm to 25 mm. Potato flesh was otherwise undamaged except under the dark spots.

In another series the test system is peeps and sprouts. The series is described as follows: Fogging of 1-nonanol versus clove oil, "burning" peeps and sprouts (Example III). Format: in vivo, potatoes. To be noted: short duration, similar dosages.
In series [2] the test system is peeps and sprouts on stored potatoes. Kind of series: Thermofog treatment of stored potatoes with 1-nonanol to determine sprout destruction (Example II). It is filed as in vivo. As for the experimental part:
Stored potatoes in a small open container were treated with 1-nonanol (n-nonyl alcohol) via a thermofogger to determine sprout destruction. The thermofogger was operated at an aerosol chamber temperature of about 500° F. A good stable aerosol was produced. The alcohol was applied at a dosage of 8 ml for 2 kg of potatoes. The system was open so that the actual dosage reaching the potatoes was considerably less than the fogged amount. The potatoes were exposed to the thermofog for approximately one minute, after which the treatment containers (1-gallon bottles) were sealed and held at 53° F. for 24 hours before being connected to normal storage ventilation. In a first test the potatoes had white “peeps” showing from the eyes before treatment. […] In a second test the potatoes were treated with 1-nonanol at the same fogging temperature and dosage for the same period of time to achieve the same application dosage as in Example I. The potatoes in this storage had sprouts averaging in excess of about 2 cm in length. In this experiment, potatoes with very long sprouts, some up to eight cm or more, were treated with 1, 2, and 4 times sequentially with full strength nonanol. […] This “spray-paint” method was thus used to try to bring the total amount (rate) of nonanol up to a level capable of killing large sprouts as well as peeps, a necessity in commercial settings where sprouts of all sizes exist. It required 4 applications to reach the level at which these large sprouts were completely killed. […] While this was a small scale test, a whole storage full of potatoes in this condition would likely lead to secondary decays. Single or even double applications didn't reach a level of nonanol high enough to completely kill these large-sized sprouts.

The next series concerns stored potatoes. To be noted: continuous vapors by wicking over an extended period; cited from earlier work.

Regarding `CCCCCCCCO` [1-Octanol, 1-octanol], in series [1], the “Burn “old”” value is given as “++” and the “Burn “new”” value was “+++”. In addition, in the series on potatoes (potato, in vivo, 24 h), the “depth of damage to the flesh at the dark spots” value is given as 5-25 mm. Further, the “condition of potato skin” value in the series with potatoes (potatoes at about 36° F., examined about 24 hours after treatment) is “large dark damaged spots”. Moreover, the “injury to potato skin or flesh” value with potatoes (potatoes held at 53° F., similar dosage, fogging temperature and rate) is “did not show injury to the potato skin or to its flesh”.

For the compound `CCCCCCCCCO` [1-Nonanol, 1-nonanol], the “effectiveness in “burning” peeps and sprouts relative to clove oil” value in the series with peeps and sprouts is reported as “about four times as effective as clove oil”. Further, in series [1] (dosage one-fourth as great as the clove oil dosage), the ““burn” effectiveness of existing peeps” value is 50%. Also, in series [1], the “Burn “old”” value is reported as “+++” and the “Burn “new”” value is reported as “+++”. Also, in series [1] (one-half dosage, within 24 hours after treatment), the ““burn” effectiveness of existing peeps” value was determined as 100%. Moreover, the “effect on white “peeps”” value in series [2] (first test, 8 ml for 2 kg of potatoes fogged, open system, inspected about 24 hours after treatment) was “burned to a dark color and were inactivated”. The “damage to potato flesh adjacent the eyes” value in series [2] (first test, about 24 hours after treatment) is recorded as “without any damage to potato flesh adjacent the eyes”. Also, the “negative side effect observed” value in series [2] (second test, 4 applications on large sprouts) is recorded as “wet, slimy, sprout rot”. The “applications required to completely kill large sprouts” value in series [2] (second test, sprouts up to eight cm or more, sequential full strength applications) is on record as 4 applications.

For the compound `CC(CCO)CC(C)(C)C` (centres unmarked) [3,5,5-trimethyl hexanol], in the series with stored potatoes, the “damage to potato flesh” value is on record as “damaged potato flesh, especially near affected eyes” and the “effect on existing sprouts” value was “strongly “burned” (desiccated) existing sprouts”.

For the compound `CCCCCCO` [Hexanol], in series [1], the “Burn “old”” value was “+” and the “Burn “new”” value is “++”.

For the compound `CCCCCOC(C)=O` [AmylAcetate, reference compound], in series [1], the “Burn “new”” value is “++”.

Turning to `CCCCCCCCCCCCO` [Dodecanol], in series [1], the “Burn “old”” value is recorded as “−\+” and the “Burn “new”” value is reported as “−”.

`CCCCCCCCCCO` [1-Decanol, 1-decanol]: in series [1], the “Burn “old”” value is “++” and the “Burn “new”” value is listed as “++”.

The values above are taken from patent US20140200142A1, “TREATMENT OF STORED TUBERS WITH AEROSOLS OF HIGHER ALCOHOLS” (1,4 Group, Inc., priority 2013, published 2014).
